Molecules are shown by their SMILES.

For one assay, the target named is T1, Matrilysin (Homo sapiens, UniProt P09237).
T1 sequence (P09237 whole entry): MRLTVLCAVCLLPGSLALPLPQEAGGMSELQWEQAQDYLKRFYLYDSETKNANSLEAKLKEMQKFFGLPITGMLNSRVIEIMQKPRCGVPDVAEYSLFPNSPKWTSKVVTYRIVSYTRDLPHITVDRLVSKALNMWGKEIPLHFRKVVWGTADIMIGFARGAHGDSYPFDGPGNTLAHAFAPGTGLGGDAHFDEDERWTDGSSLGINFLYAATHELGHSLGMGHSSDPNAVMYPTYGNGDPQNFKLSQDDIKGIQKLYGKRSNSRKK
Description: Inhibition of human recombinant MMP7 expressed in Escherichia coli by fluorogenic peptide cleavage assay.

Assay [1] concerns the target Matrix metalloproteinase-14 (Homo sapiens, UniProt P50281). As to the kind of experiment: Inhibition of human recombinant MT1-MMP expressed in Escherichia coli by fluorogenic peptide cleavage assay.
Assay [2] deals with 72 kDa type IV collagenase (Homo sapiens, UniProt P08253). Description: Inhibition of human recombinant MMP2 expressed in Escherichia coli by fluorogenic peptide cleavage assay.
Sequence of 72 kDa type IV collagenase (P08253 whole entry): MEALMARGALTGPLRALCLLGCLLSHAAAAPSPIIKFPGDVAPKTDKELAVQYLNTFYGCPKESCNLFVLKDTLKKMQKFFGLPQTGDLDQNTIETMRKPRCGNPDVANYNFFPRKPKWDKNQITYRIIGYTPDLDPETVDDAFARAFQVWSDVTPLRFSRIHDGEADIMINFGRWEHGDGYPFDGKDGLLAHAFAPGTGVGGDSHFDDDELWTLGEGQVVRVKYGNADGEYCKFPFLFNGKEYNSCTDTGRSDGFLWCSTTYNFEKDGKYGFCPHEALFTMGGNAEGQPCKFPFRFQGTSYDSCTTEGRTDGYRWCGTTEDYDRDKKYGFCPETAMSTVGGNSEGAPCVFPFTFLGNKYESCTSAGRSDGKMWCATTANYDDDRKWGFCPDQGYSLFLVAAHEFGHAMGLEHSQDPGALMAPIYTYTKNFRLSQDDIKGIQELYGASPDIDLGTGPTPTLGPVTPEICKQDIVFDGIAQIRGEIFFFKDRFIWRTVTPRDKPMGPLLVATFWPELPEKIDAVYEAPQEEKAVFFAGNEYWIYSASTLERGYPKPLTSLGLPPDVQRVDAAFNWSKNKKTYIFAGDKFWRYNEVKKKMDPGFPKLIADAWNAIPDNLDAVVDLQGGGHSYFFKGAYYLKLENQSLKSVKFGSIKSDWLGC

By IC50 is commonly meant the point on the concentration scale where inhibition reaches its midpoint. `COc1cc(C(=O)O[C@@H]2Cc3c(O)cc(O)cc3O[C@H]2c2cc(O)c(O)c(O)c2)cc(O)c1O`: the values for the concentration for half-maximal inhibition (IC50) (at Matrilysin; in assay [1]; in assay [2]) were 20 µM, 3.1 µM and 5.4 µM, respectively.
For `COc1cc(C(=O)O[C@@H]2Cc3c(O)cc(O)cc3O[C@@H]2c2ccc(O)c(O)c2)cc(O)c1O`, in that order: > 100 µM, 15.6 µM and 88 µM.
In the case of `COc1cc(C(=O)O[C@@H]2Cc3c(O)cc(O)cc3O[C@@H]2c2cc(O)c(O)c(O)c2)cc(O)c1O`, the IC50 on Matrilysin is 20 µM; in assay [1], 1.7 µM; in assay [2], 8.7 µM.
`COc1cc(C(=O)O[C@H]2Cc3c(O)cc(O)cc3O[C@@H]2c2ccc(O)c(O)c2)cc(O)c1O`: the IC50 on Matrilysin was > 100 µM; in assay [1], 52 µM; in assay [2] it was 28 µM.
On to `COc1c(O)cc(C(=O)O[C@@H]2Cc3c(O)cc(O)cc3O[C@H]2c2cc(O)c(O)c(O)c2)cc1O`, for which the IC50 at Matrilysin stood at 32 µM; in assay [1], 10.5 µM; in assay [2] it was 19 µM.
As for `COc1c(O)cc(C(=O)O[C@@H]2Cc3c(O)cc(O)cc3O[C@@H]2c2ccc(O)c(O)c2)cc1O`, the IC50 on Matrilysin was > 100 µM; in assay [1] it was 3.7 µM; in assay [2], 34 µM.
For `COc1c(O)cc(C(=O)O[C@@H]2Cc3c(O)cc(O)cc3O[C@@H]2c2cc(O)c(O)c(O)c2)cc1O`, the results for the IC50 (on Matrilysin; in assay [1]; in assay [2]) were 72 µM, 12.5 µM and 18.7 µM, respectively.
For `COc1c(O)cc(C(=O)O[C@H]2Cc3c(O)cc(O)cc3O[C@@H]2c2ccc(O)c(O)c2)cc1O`, in that order: > 100 µM, > 100 µM and 22 µM.
In the case of `O=C(O[C@@H]1Cc2c(O)cc(O)cc2O[C@@H]1c1cc(O)c(O)c(O)c1)c1cc(O)c(O)c(O)c1` [EPIGALOCATECHIN GALLATE], the results for the half-maximal inhibitory concentration (IC50) (on Matrilysin; in assay [1]; in assay [2]) were 21.5 µM, 6.8 µM and 9.6 µM, respectively.

The record behind these values is ChEMBL document CHEMBL1152374, “Regioselective synthesis of methylated epigallocatechin gallate via nitrobenzenesulfonyl (Ns) protecting group” (Bioorg Med Chem Lett, 2009).
